Measurements published in article PMC6286779, “HLA-A2-Restricted Epitopes Identified from MTA1 Could Elicit Antigen-Specific Cytotoxic T Lymphocyte Response” (Journal of Immunology Research, 2018).

Tests used:
[1] = target: HLA-A*0201 molecules (Homo sapiens, UniProt P04439, D140Y/D185E/D98H/E176V/E277Q/G131W/G231S/I119V/I121R/I166T/I218V/L300P/L318F/N151K/N90K/P208A/P217A/Q86G/Q94H/R138H/R169H/T345S); experiment: T2 binding assay; conditions: T2 cells 1 × 10^6 cells/ml, peptide 50 μg/ml, 3 μg/ml β2-M, serum-free RPMI 1640, 18 h, 37°C; BB7.2 staining, flow cytometry; FI > 1.5 = high affinity
Procedure: The binding affinity of these peptides to HLA-A^∗0201 was evaluated according to our previous study. Briefly, T2 cells (1 × 10^6 cells/ml) were incubated with each peptide (50 μg/ml) and 3 μg/ml human β2-microglobulin (β2-M, Merck, Germany) in serum-free RPMI 1640 medium for 18 h at 37°C in a humidified atmosphere of 5% CO2. Then cells were washed twice and incubated with the anti-human HLA-A2 PE-Cyanine7 mAb, BB7.2 (eBioscience, USA) for 0.5 h at 4°C. Finally, cells were collected, washed, and analyzed using flow cytometry (FACSCalibur, Becton Dickinson, USA). The fluorescence index (FI) calculation was performed as follows: FI = [(mean fluorescence intensity (MFI) of the given peptide − background) − (MFI of the PBS control group − background)]/[(MFI of the PBS control group − background)]. The MFI value of cells untreated with peptides and antibodies was employed as background. Peptides with an FI factor of more than 1.5 were classed as high-affinity candidates.

[2] = test system: SW620 incubated with an anti-human HLA-A2 antibody; experiment: LDH cytotoxicity assay, CTLs induced in vitro, HLA-A2 blocked; format: cell-based; conditions: peptide-induced CTLs, BB7.2 added 30 min before effectors
Procedure: CTL induction in vitro was conducted according to the procedures previously described. Briefly, PBMCs from eight HLA-A^∗02^+ healthy donors were isolated using Ficoll-Paque density gradient centrifugation and resuspended in RPMI 1640 medium supplemented with 10% FBS. Then, PBMCs were stimulated three times (once a week) with the indicated peptides (10 μg/ml) or protein MTA1(1–283) (at final concentrations of 0, 1, 10, 30, and 50 μg/ml) for 21 days. Human recombinant cytokine interleukin-2 (IL-2) (50 U/ml) was added on day 3 and 1 day after each stimulation. The cytotoxic assay (lactate dehydrogenase (LDH) assay) and IFN-γ secretion enzyme-linked immunospot (ELISPOT) assay were performed on day 21.
Cytotoxic activity of induced T cells was tested based on the quantitation of LDH release using the nonradioactive cytotoxicity assay kit (Promega, USA) at the gradient E/T ratio [29, 31]. Target cells which expressed different levels of MTA1 or peptide-pulsed T2 cells were used as target cells. The anti-human HLA-A2 antibody (BB7.2) was added 30 min before adding effector cells to determine the HLA restriction. Target cells (5 × 10^3/well) were cocultured with the effector cells at 37°C for 4 h. The percentage of specific lysis of the target cells was determined using the equation: percentage of specific lysis = [(experimental release − effector spontaneous release − target spontaneous release)/(target maximum release − target spontaneous release)] × 100.

FI (fluorescence index) [1] | Sequence | lysis of SW620 cells incubated with an HLA-A2 blocking antibody [2]
1.28 | TLLNETESL [Peptide P129] | did not lyse
2.08 | YLIRRIEEL [Peptide P22] | did not lyse
